Experimental data taken from patent US20050271606A1, “Composition for treating inflammation which contains zinc pyrrolidonecarboxylate” (priority 2004, published 2005).

Legend:
Type in all cases: cell-based
AP-1 = assay: Action on AP-1 activation by ultraviolet ray (UVA) in human dermal fibroblasts, activated AP-1 in nucleoprotein (gel shift or ELISA assay); details: 50 μM, 18 h incubation, UVA 20 J/cm^2
Experimental: (§1) The fibroblasts were irradiated with ultraviolet rays (UVA: 20 J/cm^2) using Dermaray M-DMR-80 (manufactured by Toshiba Iryoyohin). After 4 to 5 hours, the fibroblasts were recovered and the nucleoprotein was extracted therefrom by a conventional method. The resulting nucleoprotein was subjected to a gel shift assay or an ELISA assay (TransAM Kit, ACTIVE MOTIF) to detect activated AP-1. When applying the gel shift assay, the radioactive value of the AP-1 band was measured using a bio-imaging analyzer BAS 2000 (manufactured by Fuji Photo Film).
The suppression rate of the test compound for AP-1 activation was calculated from the following formula. Suppression Rate for AP-1 Activation (%)={1−(A1−A3)/(A2−A3)}×100 A1: radioactive value of AP-1 band when a test compound was added A2: radioactive value of AP-1 band when no test compound was added A3: radioactive value of AP-1 band when no test compound was added and no irradiation with ultraviolet rays

AP-1 (c-Jun) = assay: AP-1 activation by ultraviolet ray in human dermal fibroblasts, ELISA assay (TransAM Kit), quantity of c-Jun; details: 18 h incubation, UVA 20 J/cm^2, ELISA
Experimental: as §1
(§2) An ELISA assay was performed in accordance with the manual of the kit used, and the activation of AP-1 was obtained by determination of the quantity of c-Jun or c-Fos.
(§3) The suppression rate of AP-1 (c-Jun or c-Fos) activation of a test compound was calculated from the following formula. Suppression Rate for AP-1 Activation (%)={1−{B1−B3)/(B2−B3)}×100 B1: 450 nm absorbance when a test compound was added (per nucleoprotein) B2: 450 nm absorbance when no test compound was added (per nucleoprotein) B3: 450 nm absorbance when no test compound was added and no ultraviolet ray was irradiated (per nucleoprotein)

AP-1 (c-Fos) = assay: AP-1 activation by ultraviolet ray in human dermal fibroblasts, ELISA assay (TransAM Kit), quantity of c-Fos; details: 18 h incubation, UVA 20 J/cm^2, ELISA
Experimental: as §1, §2, §3

Question: `O=C1CCC(C(=O)[O-])N1.O=C1CCC(C(=O)[O-])N1.[Zn+2]` (racemic) [Zinc DL-Pyrrolidonecarboxylate] was tested. Which “Suppressing Rate (%) for AP-1 activation” value (AP-1) did it give?
Answer: The value was 38.8%.

Question: Which results are given for `O=C1CC[C@@H](C(=O)[O-])N1.O=C1CC[C@@H](C(=O)[O-])N1.[Zn+2]` [Zinc L-Pyrrolidonecarboxylate]?
Answer: Suppressing Rate (%) (c-Jun) (AP-1 (c-Jun); 10 μM): 109.5%; Suppressing Rate (%) (c-Jun) (AP-1 (c-Jun); 100 μM): 106.7%; Suppressing Rate (%) (c-FOS) (AP-1 (c-Fos); 10 μM): 69.3%; Suppressing Rate (%) (c-FOS) (AP-1 (c-Fos); 100 μM): 77.0%

Question: For `NCC(=O)[O-].NCC(=O)[O-].[Zn+2]` [Zinc Salt of Glycine], which “Suppressing Rate (%) for AP-1 activation” value (AP-1) is on record?
Answer: The value was −72.8%.

Question: Which “Suppressing Rate (%) for AP-1 activation” value (AP-1) does the source give for Zinc Laurate here?
Answer: The value was 9.1%.
